Reference: US10669283B2, “Compound and pharmacologically acceptable salt thereof” (MEIJI SEIKA PHARMA CO., LTD., priority 2016, dated 2020)
Read-outs that look alike come from different tables or passages of the source.

Legend:
PDE4 = PDE4 inhibition, scintillation proximity assay (SPA); format: biochemical
In short: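 Compound pre-diluted 1:10 in 50 mM Tris-HCl pH 7.4, 8.3 mM MgCl2, 1.7 mM EGTA, 3 mg/mL BSA, then incubated with PDE4 and [2,8-3H]-cAMP for 120 min at room temperature. Product captured on ZnSO4-containing YSi-SPA beads for 15 min; radioactivity counted against no-enzyme blank and DMSO control.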

[1] = Hepatic metabolic stability (rat liver microsome method); format: in vitro ADME; details: rat liver microsomes 0.5 mg/mL, test substance 1 μM, NADPH 1 mM, 37° C., 30 minutes
Method: Metabolic stability in rat liver microsomes was evaluated by the following method. In 100 mM of potassium phosphate buffer solution (pH 7.4), liver microsomes (concentration at reaction: 0.5 mg/mL) and the test substance (concentration at reaction: 1 μM) were preincubated at 37° C. Five minutes later, 100 mM of potassium phosphate buffer (pH 7.4) solution of NADPH (concentration at reaction: 1 mM) was mixed thereto to start the reaction. After a predetermined time passed, acetonitrile was mixed to the reaction mixture to stop the reaction. Here, the reaction time was 0 and 30 minutes, and drug concentration measurement was performed for each time period using LC-MS. The % remaining value of the test compound was calculated from the value for 0 minutes and the value for 30 minutes, using the calculation formula below: % Remaining=(Value for 30 Minutes/Value for 0 Minutes)×100
The results of measuring the rat liver microsome metabolic Stability (% remaining for 30-minute reaction) for the test compound by the above method were evaluated in accordance with the following evaluated basis; A: a % remaining rate of 75% or more, B: 60% or more and less than 75%, C: 45% or more and less than 60%, and D: less than 45%.

[2] = scintillation proximity assay, class symbols, read-out: PDE4 Inhibitory Activity
[3] = scintillation proximity assay (SPA), evaluated as classes A, B, C, read-out: PDE4 Inhibitory Activity (concentration for the inhibition rate of 50%)

| SMILES | IC50 (PDE4; [2]) [nM] | Residual ratio (% remaining for 30-minute reaction) [1] | IC50 (PDE4; [3]) [nM] |
| --- | --- | --- | --- |
| OC1CCN(c2ccc(-c3nccs3)c3oc(N4CC5CC(C4)N5)nc23)CC1 [Example 397, 1-(2-(3,6-diazabicyclo[3.1.1]heptan-3-yl)-7-(thiazol-2-yl)benzo [d]oxazol-4-yl) piperidin-4-ol] | < 100 | A (a % remaining rate of 75% or more) |  |
| OCC(F)(F)Oc1ccc(-c2ccc(F)cn2)c2oc(N3CC4CC(C3)N4)nc12 [Example 319, 2-((2-(3,6-Diazabicyclo[3.1.1]heptan-3-yl)-7-(5-fluoropyridin-2-yl)benzo[d]oxazol-4-yl)oxy)-2,2-difluoroethan-1-ol] |  | A (a % remaining rate of 75% or more) | < 100 |
| O=S(=O)(CCO)c1ccc(-c2nccs2)c2oc(N3CC4CC(C3)N4)nc12 [Example 350, 2-((2-(3,6-diazabicyclo[3.1.1]heptan-3-yl)-7-(thiazol-2-yl)benzo [d]oxazol-4-yl)sulfonyl)ethan-1-ol] | < 100 | A (a % remaining rate of 75% or more) |  |
| COCCNC(=O)c1ccc(-c2nccs2)c2oc(N3CC4CC(C3)N4)nc12 [Example 353, 2-(3,6-diazabicyclo [3.1.1]heptan-3-yl)-N-(2-methoxyethyl)-7-(thiazol-2-yl) benzo[d] oxazole-4-carboxamide] | < 100 | A (a % remaining rate of 75% or more) |  |
| CCNC(=O)c1ccc(-c2nccs2)c2oc(N3CC4CC(C3)N4)nc12 [Example 358, 2-(3,6-diazabicyclo [3.1.1]heptan-3-yl)-N-ethyl-7-(thiazol-2-yl) benzo[d]oxazole-4-carboxamide] | < 100 | A (a % remaining rate of 75% or more) |  |
| O=S(=O)(c1ccc(-c2nccs2)c2oc(N3CC4CC(C3)N4)nc12)C(F)(F)F [Example 334, 2-(3,6-diazabicyclo [3.1.1]heptan-3-yl)-7-(thiazol-2-yl)-4-((trifluoromethyl)sulfonyl) benzo[d]oxazole] | < 100 | B (60% or more and less than 75%) |  |
| CS(=O)(=O)c1ccc(Oc2ccc(-c3nccs3)c3oc(N4CC5CC(C4)N5)nc23)nc1 [Example 352, 2-(3,6-diaza-bicyclo[3.1.1]heptan-3-yl)-4-((5-(methylsulfonyl)pyridin-2-yl)oxy)-7-(thiazol-2-yl)benzo [d]oxazole] | < 100 | A (a % remaining rate of 75% or more) |  |
| c1cnc(Oc2ccc(-c3nccs3)c3oc(N4CC5CC(C4)N5)nc23)nc1 [Example 338, 2-(3,6-diazabicyclo [3.1.1]heptan-3-yl)-4-(pyrimidin-2-yloxy)-7-(thiazol-2-yl)benzo[d]oxazole] | < 100 | A (a % remaining rate of 75% or more) |  |
| COCCNS(=O)(=O)c1ccc(-c2nccs2)c2oc(N3CC4CC(C3)N4)nc12 [Example 387, 2-(3,6-diazabicyclo[3.1.1]heptan-3-yl)-N-(2-methoxyethyl)-7-(thiazol-2-yl)benzo [d]oxazole-4-sulfonamide] | < 100 | A (a % remaining rate of 75% or more) |  |
| CCC(O)C(F)(F)Oc1ccc(-c2nccs2)c2oc(N3CC4CC(C3)N4)nc12 (stereo not shown) [Example 395, 1-((2-(3,6-diazabicyclo[3.1.1]heptan-3-yl)-7-(thiazol-2-yl)benzo[d]oxazol-4-yl)oxy)-1,1-difluorobutan-2-ol] | < 100 | B (60% or more and less than 75%) |  |
| C[S+]([O-])c1ccc(-c2nccs2)c2oc(N3CC4CC(C3)N4)nc12 (stereo not shown) [Example 346, 2-(3,6-diazabicyclo[3.1.1]heptan-3-yl)-4-(methylsulfinyl)-7-(thiazol-2-yl)benzo [d]oxazole] | < 100 | A (a % remaining rate of 75% or more) |  |
| O=C(c1ccc(-c2nccs2)c2oc(N3CC4CC(C3)N4)nc12)N1CCCC1 [Example 360, (2-(3,6-diazabicyclo [3.1.1]heptan-3-yl)-7-(thiazol-2-yl)benzo[d]oxazole-4-yl)(pyrrolidin-1-yl)methanone] | 100 to 1000 | A (a % remaining rate of 75% or more) |  |
| Fc1ccc(-c2cc(Cl)c(OC(F)(F)F)c3nc(N4CC5CCC(C4)N5)oc23)nc1 [Example 10, 2-(3,8-Diazabicyclo[3.2.1]octan-3-yl)-5-chloro-7-(5-fluoropyridin-2-yl)-4-(trifluoromethoxy)benzo[d]oxazole] |  | A (a % remaining rate of 75% or more) | < 100 |
| Cn1ccc(-c2ccc(OC(F)(F)C(C)(C)O)c3nc(N4CC5CC(C4)N5)oc23)n1 [Example 394, 1-((2-(3,6-diazabicyclo[3.1.1]heptan-3-yl)-7-(1-methyl-1H-pyrazol-3-yl)benzo[d]oxazol-4-yl)oxy)-1,1-difluoro-2-methylpropan-2-ol] | 100 to 1000 | A (a % remaining rate of 75% or more) |  |
| O=C(N1CC(O)C1)C(F)(F)Oc1ccc(-c2nccs2)c2oc(N3CC4CC(C3)N4)nc12 [Example 412, 2-((2-(3,6-diazabicyclo [3.1.1]heptan-3-yl)-7-(thiazol-2-yl)benzo[d]oxazol-4-yl)oxy)-2,2-difluoro-1-(3-hydroxy-azetidin-1-yl)ethan-1-one] | < 100 | A (a % remaining rate of 75% or more) |  |
| Cc1cc(C(F)(F)F)c(Oc2ccc(-c3nccs3)c3oc(N4CC5CC(C4)N5)nc23)nn1 [Example 340, 2-(3,6-diazabicyclo[3.1.1]heptan-3-yl)-4-((6-methyl-4-(trifluoro-methyl)pyridazin-3-yl)oxy)-7-(thiazol-2-yl)benzo[d] oxazole] | < 100 | A (a % remaining rate of 75% or more) |  |
| FC(F)(F)Oc1ccc(-c2nccs2)c2oc(N3CC4CC(C3)N4)nc12 [Example 29, 2-(3,6-Diazabicyclo[3.1.1]heptan-3-yl)-7-(thiazol-2-yl)-4-(trifluoromethoxy)benzo[d]oxazole] |  | B (60% or more and less than 75%) | < 100 |
| CC(C)(O)C(F)(F)Oc1ccc(-c2ccc(F)cn2)c2oc(N3CC4CC(C3)N4)nc12 [Example 329, 1-((2-(3,6-Diazabicyclo[3.1.1]heptan-3-yl)-7-(5-fluoropyridin-2-yl)benzo[d]oxazol-4-yl)oxy)-1,1-difluoro-2-methylpropan-2-ol] | < 100 | A (a % remaining rate of 75% or more) |  |
| FC(F)(F)c1ccc(Oc2ccc(-c3nccs3)c3oc(N4CC5CC(C4)N5)nc23)nc1 [Example 336, 2-(3,6-diazabicyclo [3.1.1]heptan-3-yl)-7-(thiazol-2-yl)-4-((5-(trifluoromethyl)pyridin-2-yl)oxy)benzo[d]oxazole] | < 100 | B (60% or more and less than 75%) |  |
| FC(F)(F)Oc1c(Cl)cc(-n2cccn2)c2oc(N3CC4CCC(C3)N4)nc12 [Example 5, 2-(3,8-Diazabicyclo[3.2.1]octan-3-yl)-5-chloro-7-(1H-pyrazol-1-yl)-4-(trifluoromethoxy)benzo[d]oxazole] |  | B (60% or more and less than 75%) | < 100 |
